Measured values from PubChem BioAssay (NCI).
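Assay format: 96-well plates, 48-hour exposure. Abbreviation: GI50, concentration required for 50% inhibition of growth. TGI is the concentration that stops growth completely.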

Columns and labels:
Experiment in all cases: inhibition of tumour cell growth, NCI panel, 48 h; in the data active = GI50 below about 0.43 µM; inactive = the rest
[1] = test system: SF-539 CNS
[2] = test system: UO-31 renal
[3] = test system: TK-10 renal
[4] = test system: HT29 colon
[5] = test system: K-562 leukemia
[6] = test system: EKVX NSCLC
[7] = test system: HCT-116 colon
[8] = test system: PC-3 prostate
[9] = test system: OVCAR-4 ovarian
[10] = test system: CAKI-1 renal

CC1(C)N=C(N)N=C(N)N1c1cc(Cl)ccc1Cl
> 100 µM: TGI [1] | TGI [2] | TGI [3] | TGI [4] | TGI [5] | TGI [6] | TGI [7] | TGI [8] | TGI [9]
inactive: GI50 [1] > 100 µM | GI50 [2] > 100 µM | GI50 [3] > 100 µM | GI50 [4] 62.5 µM | GI50 [5] 55.3 µM | GI50 [6] > 100 µM | GI50 [7] 93.8 µM | GI50 [8] > 100000 nM | GI50 [9] 86.8 µM

CC(=O)Nc1ccc(C2[C@H]3C(=O)N(c4ccc(Cc5ccc(N6C(=O)[C@@H]7ON(c8ccccc8)C(c8ccc(NC(C)=O)cc8)[C@@H]7C6=O)cc5)cc4)C(=O)[C@H]3ON2c2ccccc2)cc1 (some centres undefined)
> 100 µM: TGI [1] | TGI [2] | TGI [3] | TGI [4] | TGI [5] | TGI [6] | TGI [10] | TGI [7] | TGI [9]

O=c1cc2ccccc2nn1-c1ccccc1Cl
96.6 µM: TGI [2]
> 100 µM: TGI [1] | TGI [3] | TGI [4] | TGI [5] | TGI [6] | TGI [10] | TGI [7] | TGI [9]

C=C1CC[C@@H]2C(C)(C)CCC[C@@]2(C)[C@@H]1Cc1cc(O)ccc1O
8.77 µM: TGI [3]
3.9 µM: TGI [1]
29 µM: TGI [6]
16.8 µM: TGI [7]
16.7 µM: TGI [5]
22.2 µM: TGI [10]
32.6 µM: TGI [4]
3.72 µM: TGI [9]
5.25 µM: TGI [2]

CC(=O)OC(C)(C)/C=C/C(=O)[C@](C)(O)[C@H]1[C@H](O)C[C@@]2(C)[C@@H]3CC=C4[C@@H](C[C@H](O)C(=O)C4(C)C)[C@]3(C)C(=O)C[C@]12C
< 0.0167 µM: TGI [2]
< 0.0221 µM: TGI [6]
1.22 µM: TGI [7]
16.8 µM: TGI [5]
< 0.01 µM: TGI [1] | TGI [3] | TGI [10] | TGI [9]

O=C(O)C12C3CCCC1C2CC3 (centres undefined)
> 100 µM: TGI [1] | TGI [2] | TGI [3] | TGI [4] | TGI [5] | TGI [6] | TGI [10] | TGI [7]

N.N.NC(CS)C(=O)[O-].NC(CS)C(=O)[O-].[Pt+4] (centres undefined)
> 50 µM: TGI [1] | TGI [3] | TGI [4] | TGI [5] | TGI [6] | TGI [7] | TGI [9]
inactive: GI50 [1] > 50 µM | GI50 [2] > 5 µM | GI50 [3] > 50 µM | GI50 [4] > 50 µM | GI50 [5] > 50 µM | GI50 [6] > 50 µM | GI50 [7] > 50 µM | GI50 [9] > 50 µM
> 5 µM: TGI [2]

Cc1c2cc[nH]c(=O)c2cc2c(=O)c3cnccc3[nH]c12
> 100 µM: TGI [2] | TGI [3] | TGI [4] | TGI [5] | TGI [6] | TGI [10] | TGI [7] | TGI [9]

CC(=O)OCC1OC(n2c(=O)n(-c3ccccc3)c(=O)c3ccccc32)C(OC(C)=O)C(OC(C)=O)C1OC(C)=O (centres undefined)
> 100 µM: TGI [1] | TGI [2] | TGI [3] | TGI [4] | TGI [5] | TGI [6] | TGI [10] | TGI [7] | TGI [9]

CN(c1ccccc1)C(c1ccccc1)C(O)c1ccccc1 (centres undefined)
47.7 µM: TGI [10]
33.7 µM: TGI [7]
62.7 µM: TGI [6]
57.1 µM: TGI [3]
41.9 µM: TGI [2]
34.5 µM: TGI [9]
41.1 µM: TGI [5]
37.7 µM: TGI [1]
32.9 µM: TGI [4]

COC(=O)C1=C(O)C(O)=C(C(=O)OC)C1
> 100 µM: TGI [1] | TGI [2] | TGI [3] | TGI [4] | TGI [5] | TGI [6] | TGI [10] | TGI [7] | TGI [9]

COc1ccc(-c2nc(-c3ccccc3)c(-c3ccccc3)n2C2CC2)cc1OC1CCCC1
> 165 µM: TGI [1] | TGI [2] | TGI [4] | TGI [5] | TGI [10] | TGI [7] | TGI [8] | TGI [9]
inactive: GI50 [1] 90.9 µM | GI50 [2] 64.6 µM | GI50 [4] 85.1 µM | GI50 [5] 11.5 µM | GI50 [10] 50.2 µM | GI50 [7] 14.1 µM | GI50 [8] 22600 nM | GI50 [9] 97.4 µM

CCOP(=O)(OCC)/C(C#N)=C/c1ccco1
> 100 µM: TGI [1] | TGI [2] | TGI [3] | TGI [4] | TGI [5] | TGI [6] | TGI [10] | TGI [7] | TGI [9]

ON=C1CCC(c2ccccc2)CC1 (centres undefined)
> 100 µM: TGI [1] | TGI [2] | TGI [3] | TGI [4] | TGI [5] | TGI [6] | TGI [10] | TGI [7] | TGI [9]

COC(=O)c1ccc(N=NN(C)CO)cc1
> 100 µM: TGI [1] | TGI [2] | TGI [3] | TGI [4] | TGI [5] | TGI [6] | TGI [7] | TGI [9]

CCOC(=O)CC1=CSC2=NCCN12
> 100 µM: TGI [1] | TGI [2] | TGI [3] | TGI [4] | TGI [5] | TGI [6] | TGI [10] | TGI [7] | TGI [9]

COc1ccc(/C=C2/C[N+](C)(C)C/C(=C/c3ccc(OC)cc3)C2=O)cc1
> 88.9 µM: TGI [9]
> 100 µM: TGI [1] | TGI [2] | TGI [3] | TGI [4] | TGI [5] | TGI [6] | TGI [10] | TGI [7]

C[C@]12CC[C@@H]3c4ccc(O)cc4CC[C@H]3[C@@H]1CC[C@@H]2NS(=O)(=O)Cc1ccc(Cl)cc1
14.9 µM: TGI [3]
11.2 µM: TGI [10]
4.39 µM: TGI [1]
3.97 µM: TGI [7]
5.13 µM: TGI [2]
21.3 µM: TGI [5]
13.6 µM: TGI [9]
15 µM: TGI [8]
inactive: GI50 [1] 1.88 µM | GI50 [2] 1.39 µM | GI50 [3] 3.5 µM | GI50 [4] 3.34 µM | GI50 [5] 2.99 µM | GI50 [10] 3.06 µM | GI50 [7] 1.92 µM | GI50 [8] 2640 nM | GI50 [9] 2.69 µM
10.8 µM: TGI [4]

CC(NNC(=S)N1CCCCCC1)c1ccc2ccccc2n1 (centres undefined)
12.6 µM: TGI [1]
inactive: GI50 [1] 1.68 µM | GI50 [2] 0.478 µM | GI50 [3] 1.21 µM | GI50 [4] 2.54 µM | GI50 [5] 2.14 µM | GI50 [10] 0.456 µM | GI50 [7] 0.688 µM | GI50 [8] 2070 nM
> 63 µM: TGI [8]
active: GI50 [9] 0.0701 µM
> 100 µM: TGI [5]
21 µM: TGI [3]
10.8 µM: TGI [10]
31.1 µM: TGI [4]
14.1 µM: TGI [2]
17.8 µM: TGI [7]
13.8 µM: TGI [9]

CCOC(=O)C(=O)Nc1c(N(CC)CC)n2ccccc2nc1=O
> 100 µM: TGI [1] | TGI [2] | TGI [4] | TGI [5] | TGI [6] | TGI [10] | TGI [7]

CC(C)(C)[C@H]1CO[C@]2(C)[C@@H]3C[C@@H]3C(=O)N12
> 100 µM: TGI [1] | TGI [2] | TGI [3] | TGI [4] | TGI [5] | TGI [6] | TGI [10] | TGI [7] | TGI [9]
